For series [1], the system named is transplanted paddy seedlings. The experiment in a line: Paddy safety, treatment on stem and leaves of transplanted paddy seedlings. The class given is in vivo. The conditions noted are these: 150 g ai/ha, spray on stem and leaves of transplanted paddy seedlings at 4-5-leaves stage. Here is the method:
The 5-grade evaluation criteria by visual examination for weeding activity and crop safety (i.e. phytotoxicity) are listed in Table 2.
In pots (diameter of 12 cm) containing test soil, paddy seedlings of the given stage are transplanted and grown in the greenhouse at 20-30° C. After growing to 4-5-leaves stage, the spraying treatment on the stem and leaves of paddy seedlings is conducted in a dosage of 150 g ai/ha after diluting the formulation obtained according to Formulating Example 5 into a given concentration. The visual injury and growth state of the individual plants are observed in regular intervals. The evaluation for the crop safety of the compounds is conducted by 5-grade visual observation.

In the case of `CCCNC(=O)c1ccc(NCc2ccccc2Oc2nc(OC)cc(OC)n2)cc1` [Compound I-78, n-propyl 4-[2-(4,6-dimethoxy-2-pyrimidinyloxy)-benzylamino]-benzamide], the melting point was in the range of 96 to 97 °C.
Regarding `COc1cc(OC)nc(Oc2ccccc2CNc2ccc(C(=O)NC(C)C)cc2)n1` [Compound I-79, i-propyl 4-[2-(4,6-dimethoxy-2-pyrimidinyloxy)-benzylamino]benzamide], the melting point was 83 to 84 °C.
For the compound `COc1cc(OC)nc(Oc2ccccc2CNc2ccc(NC(=O)C(C)C)cc2)n1` [Compound I-101], in series [1], the Effect on tillering entry is “None” and the Stunting is given as less than 10%.
As to `COc1cc(OC)nc(Oc2ccccc2CNc2ccc(NC(=O)c3ccccc3)cc2)n1` [Compound I-102], in series [1], the Effect on tillering result is on record as “None” and the Stunting is recorded as 10-15%.
As to `COc1cc(OC)nc(Oc2ccccc2CNc2ccc(NC(=O)C(F)(F)F)cc2)n1` [Compound I-103], in series [1], the Effect on tillering result is recorded as “None” and the Stunting is 20-25%.

The melting point is the temperature, or range, at which the solid turns liquid.

The record behind these values is patent US6800590B2, “2-Pyrimidinyloxy-n-aryl-benzylamine derivatives,their processes and uses” (Shanghai Institute of Organic Chemistry, priority 2003, dated 2004).
